Reference: patent US20090191578A1, “Canis sphingosine 1-phosphate receptor isoform 5” (MERCK & CO., INC, priority 2004, published 2009)

How the values were obtained:
cS1P5 receptor [1] = target: T1, cS1P5 receptor (Canis lupus familiaris, UniProt A0A8I3Q0H0); experiment: S1P ligand binding assay with transfected CHO cells expressing the cS1P5 receptor; parameters: species or system Canis (dog); conditions: 33P-S1P, 60 minutes at room temperature, FIG. 3
Method: The transfected CHO cells from Example 2 expressing the cS1P5 receptor were evaluated for the ability of the cS1P5 receptor expressed in the cells to properly integrate into the cell membrane and bind S1P.
Transfected CHO cells from Example 2 were harvested with enzyme-free dissociation solution (Specialty Media, Lavallette, N.J.). The cells were washed once in cold PBS and suspended in S1P binding buffer (50 mM HEPES-Na, pH 7.5, 5mM MgCl2, 1 mM CaCl2, 0.5% FAF-BSA). ^33P-S1P was synthesized enzymatically from γ^33P-ATP and sphingosine using a crude extract with sphingosine kinase activity in a reaction mix containing 50 mM KH2PO4, 1 mM mercaptoethanol, 1 mM Na3VO4, 25 mM KF, 2 mM semicarbazide, 1 mM Na2EDTA, 5 mM MgCl2, […], 0.1% TritonX-114, and 1 mCi γ^33P-ATP (NEN; specific activity 2000 Ci/mmol). Reaction products were extracted with butanol and ^33P-sphingosine-1-phosphate was purified by HPLC.
^33P-S1P (0.1 uCi/ml) was sonicated with 0.2 nM sphingosine-1-phosphate dissolved in binding buffer; 100 μL of the mixture was added to 100 μL cells (1×10^5). Binding was performed for 60 minutes at room temperature. […] After drying the filter plates for 30 minutes, 50 μL of MICROSCINT 20 was added to each well and binding was measured with a Packard Top Count. Non-specific binding was defined as the amount of radioactivity remaining in the presence of 200 nM cold S1P.

cS1P5 receptor [2] = target: T1, cS1P5 receptor; experiment: 35S-GTPγS binding assay with membranes from transfected CHO cells expressing the cS1P5 receptor; assay type: biochemical, Canis (dog); conditions: 5 μM GDP, 100 pM 35S-GTPγS, one hour at room temperature, FIG. 4, read-out: EC50 (35S-GTPγS binding, coupling GTP to Gα)
Method: Functional coupling of S1P5 receptor to G proteins was measured in a ^35S-GTPγS binding assay. Membranes were prepared from transfected cells by homogenization in ice cold 20 mM HEPES pH 7.4, 10 mM EDTA using a Kinematica polytron (setting 5, for 10 seconds). Homogenates were centrifuged at 48,000×g for 15 minutes at 4° C. and the pellet suspended in 20 mM HEPES pH 7.4, 0.1 mM EDTA. Following a second centrifugation, the final pellet was suspended in 20 mM HEPES pH 7.4, 100 mM NaCl, 10 mM MgCl2. Membranes were incubated in 200 μL with 5 μM GDP, various concentrations of S1P (sonicated in 1% BSA), and 100 pM ^35S-GTPγS (NEN; specific activity 1250 Ci/mmol) in 96 well microtiter dishes. Binding was performed for one hour at room temperature, and terminated by harvesting the membranes onto GF/B filter plates with a Packard Filtermate Universal Harvester. After drying the filter plates for 30 min, 40 μL of MICROSCINT 20 was added to each well and binding was measured on a Packard Top Count scintillation counter.

EC50 (cS1P5 receptor [1]): ~0.21 nM
EC50 (cS1P5 receptor [2]): ~0.79 nM
Structure (SMILES): CCCCCCCCCCCCC/C=C/[C@@H](O)[C@@H](N)COP(=O)(O)O [S1P, sphingosine-1-phosphate]
